For one experiment, the system named is BA/F3 cell line. Nature of the experiment: BA/F3 viability assay. The note with it: Mus musculus, BaF3, 48 h, read-out: BA/F3 IC50.
The subject of a further experiment is CTLL-2 cell line. Put plainly: CTLL2 viability assay. The format is cell-based. Conditions: Mus musculus, IL-2 dependent CTLL2 viability, 24 h, ATP-lite. The source says: The protocol describes the methods to analyse the activity of compounds on their ability to sustain the IL2-dependent viability of CTLL2.
Final DMSO concentration was 0.1%.

Experiment [1] has as its system pSTAT1(2)-luciferase reporter in HeLa cells triggered with human OSM. Put plainly: JAK-STAT signalling assay. It is filed as cell-based. Conditions: HeLa cells, pSTAT1(2)-luciferase reporter, human OSM 33 ng/mL, read-out: JAK-STAT IC50. The procedure, abridged:
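Compound added 60 min before 33 ng/mL (final) human OSM; after overnight stimulation at 37 °C, luciferase signal from a transiently transfected pSTAT1(2) reporter in HeLa cells was read, with LacZ as internal control. EC50 derived from percent-inhibition dose-response curves.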

A further experiment addresses T1, human JAK3 (Homo sapiens, UniProt P52333).
T1 construct: catalytic domain (amino acids 781-1124; catalog number PV3855); purchased Invitrogen PV3855
Put plainly: JAK3 inhibition assay. The format is biochemical. The note with it: recombinant human JAK3 catalytic domain; polyGT substrate. The procedure, abridged: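 Radiometric kinase assay: 0.5 ng JAK3 with 2.5 μg polyGT in Tris pH 7.5/MgCl2 buffer, 1 μM ATP plus 0.25 μCi 33P-γ-ATP, 1% DMSO, 45 min at 30 °C, stopped with phosphoric acid.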

Read-outs that look alike come from different tables or passages of the source. Bounds are passed on as bounds.

T1 sequence (P52333 781-1124): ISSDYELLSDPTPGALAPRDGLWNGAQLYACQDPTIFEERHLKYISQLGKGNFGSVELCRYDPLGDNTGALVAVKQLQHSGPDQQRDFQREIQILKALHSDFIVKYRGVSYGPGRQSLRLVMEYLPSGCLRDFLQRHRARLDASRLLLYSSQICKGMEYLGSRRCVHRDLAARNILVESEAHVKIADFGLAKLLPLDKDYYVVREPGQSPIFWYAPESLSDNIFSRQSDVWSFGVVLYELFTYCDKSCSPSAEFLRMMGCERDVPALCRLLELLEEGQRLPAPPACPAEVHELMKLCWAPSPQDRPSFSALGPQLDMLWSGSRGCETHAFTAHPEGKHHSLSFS

Consider `CCc1cc(CO)ccc1N(C)c1cc2c(cn1)ncn2C` [Compound 81, (3-Ethyl-4-(methyl(1-methyl-1H-imidazo[4,5-c]pyridin-6-yl)amino)phenyl)MeOH], for which the IC50 in the experiment with BA/F3 cell line is > 5000 nM; with CTLL-2 cell line, > 1000 nM; in experiment [1] (Homo sapiens, HeLa), 1 to 500 nM; on human JAK3, 101 to 500 nM.

Regarding `CCc1cc(-c2cnn(C)c2)ccc1N(C)c1cc2c(cn1)ncn2C` [Compound 93, N-(2-Ethyl-4-(1-methyl-1H-pyrazol-4-yl)phenyl)-N,1-dimethyl-1H-imidazo[4,5-d]pyridin-6-amine], the IC50 in the experiment on BA/F3 cell line is > 5000 nM; in the experiment on CTLL-2 cell line, > 1000 nM; in experiment [1] (Homo sapiens, HeLa) it was 1 to 500 nM; at human JAK3, 101 to 500 nM.

Take `CCc1cc(-c2cncnc2)ccc1N(C)c1cc2c(cn1)ncn2C` [Compound 95, N-(2-ethyl-4-(pyrimidin-5-yl)phenyl)-N,1-dimethyl-1H-imidazo[4,5-c]pyridin-6-amine]: the IC50 in the experiment on BA/F3 cell line was > 5000 nM; in the experiment on CTLL-2 cell line it was > 1000 nM; in experiment [1] (Homo sapiens, HeLa), 501 to 1000 nM; at human JAK3 it was > 1000 nM.

`CCc1cc(C(C)O)ccc1N(C)c1cc2c(cn1)ncn2C` (stereo not shown) [Compound 101, 1-(3-Ethyl-4-(methyl(1-methyl-1H-imidazo[4,5-c]pyridin-6-yl)amino)phenyl)ethanol]: the IC50 was > 5000 nM in the experiment with BA/F3 cell line; > 1000 nM in the experiment on CTLL-2 cell line; 1 to 500 nM in experiment [1] (Homo sapiens, HeLa); 101 to 500 nM at human JAK3.

As for `CCc1cc(-c2cnc(NC(C)=O)nc2)ccc1N(C)c1cc2c(cn1)ncn2C` [Compound 115, N-(5-(3-Ethyl-4-(methyl(1-methyl-1H-imidazo[4,5-c]pyridin-6-yl)amino)phenyl)pyrimidin-2-yl)acetamide], the IC50 was > 5000 nM in the experiment with BA/F3 cell line; > 1000 nM with CTLL-2 cell line; 1 to 500 nM in experiment [1] (Homo sapiens, HeLa); > 1000 nM on human JAK3.

For the compound `CCc1cc(CN(C)S(C)(=O)=O)c(F)cc1N(C)c1cc2c(cn1)ncn2C` [Compound 319, N-{5-Ethyl-2-fluoro-4-[methyl-(1-methyl-1H-imidazo[4,5-c]pyridin-6-yl)-amino]-benzyl}-N-methyl-methanesulfonamide], the IC50 in the experiment with BA/F3 cell line is 1000 to 5000 nM; with CTLL-2 cell line, > 1000 nM; in experiment [1] (Homo sapiens, HeLa), 501 to 1000 nM; at human JAK3, 0.01 to 100 nM.

As for `CCc1cc(CNS(C)(=O)=O)cc(F)c1N(C)c1cc2c(cn1)ncn2C` [Compound 323, N-{3-Ethyl-5-fluoro-4-[methyl-(1-methyl-1H-imidazo[4,5-c]pyridin-6-yl)-amino]-benzyl}-methanesulfonamide], the IC50 was > 5000 nM in the experiment on BA/F3 cell line; > 1000 nM in the experiment with CTLL-2 cell line; 1 to 500 nM in experiment [1] (Homo sapiens, HeLa); 0.01 to 100 nM at human JAK3.

For `CCc1cc(CNS(C)(=O)=O)c(F)cc1N(C)c1cc2c(cn1)ncn2C` [Compound 325, N-{5-Ethyl-2-fluoro-4-[methyl-(1-methyl-1H-imidazo[4,5-c]pyridin-6-yl)-amino]-benzyl}-methanesulfonamide], the IC50 is > 5000 nM in the experiment with BA/F3 cell line; > 1000 nM in the experiment with CTLL-2 cell line; 1 to 500 nM in experiment [1] (Homo sapiens, HeLa); 101 to 500 nM on human JAK3.

Regarding `CCc1cc(CNS(=O)(=O)C(F)F)c(F)cc1N(C)c1cc2c(cn1)ncn2C` [Compound 327, N-{5-Ethyl-2-fluoro-4-[methyl-(1-methyl-M-imidazo[4,5-c]pyridin-6-yl)-amino]-benzyl}-C,C-difluoro-methanesulfonamide], the IC50 with BA/F3 cell line was 1000 to 5000 nM; with CTLL-2 cell line, 501 to 1000 nM; in experiment [1] (Homo sapiens, HeLa), 1 to 500 nM; on human JAK3, 0.01 to 100 nM.

In the case of `CCc1cc(C2CN(S(C)(=O)=O)C2)ncc1N(C)c1cc2c(cn1)ncn2C` [Compound 328, [4-Ethyl-6-(1-methanesulfonyl-azetidin-3-yl)-pyridin-3-yl]-methyl-(1-methyl-1H-imidazo[4,5-c]pyridin-6-yl)-amine], the IC50 with BA/F3 cell line is > 5000 nM; with CTLL-2 cell line it was > 1000 nM; in experiment [1], > 1000 nM; at human JAK3, > 1000 nM.

Turning to `CCc1cc(C2CN(S(=O)(=O)C(F)F)C2)ncc1N(C)c1cc2c(cn1)ncn2C` [Compound 329, {6-[1-(Difluoro-methanesulfonyl)-azetidin-3-yl]-4-ethyl-pyridin-3-yl}-methyl-(1-methyl-1H-imidazo[4,5-c]pyridin-6-yl)-amine], the IC50 with BA/F3 cell line is > 5000 nM; in the experiment on CTLL-2 cell line, 501 to 1000 nM; in experiment [1] it was 1 to 500 nM; on human JAK3 it was > 1000 nM.

Regarding `CCc1cc(C2CN(CC#N)C2)ncc1N(C)c1cc2c(cn1)ncn2C` [Compound 331, (3-{4-Ethyl-5-[methyl-(1-methyl-1H-imidazo[4,5-c]pyridin-6-yl)-amino]-pyridin-2-yl}-azetidin-1-yl)-acetonitrile], the IC50 (in experiment [1]; on human JAK3) was > 1000 nM throughout.

As to `CCc1cc(C2CN(C(C)=O)C2)ncc1N(C)c1cc2c(cn1)ncn2C` [Compound 332, 1-(3-{4-Ethyl-5-[methyl-(1-methyl-1H-imidazo[4,5-c]pyridin-6-yl)-amino]-pyridin-2-yl}-azetidin-1-yl)-ethanone], the IC50 (in experiment [1]; at human JAK3) was > 1000 nM in each case.

Turning to `CCc1cc(C2CN(C(=O)C(F)F)C2)ncc1N(C)c1cc2c(cn1)ncn2C` [Compound 333, 1-(3-{4-Ethyl-5-[methyl-(1-methyl-1H-imidazo[4,5-c]pyridin-6-yl)-amino]-pyridin-2-yl}-azetidin-1-yl)-2,2-difluoro-ethanone], the IC50 in the experiment on BA/F3 cell line was > 5000 nM; with CTLL-2 cell line, > 1000 nM; in experiment [1], > 1000 nM; on human JAK3, 501 to 1000 nM.

For `CCc1cc(C2CN(C(=O)C(F)(F)F)C2)ncc1N(C)c1cc2c(cn1)ncn2C` [Compound 334, 1-(3-{4-Ethyl-5-[methyl-(1-methyl-1H-imidazo[4,5-c]pyridin-6-yl)-amino]-pyridin-2-yl}-azetidin-1-yl)-2,2,2-trifluoro-ethanone], the IC50 was > 5000 nM with BA/F3 cell line, > 1000 nM with CTLL-2 cell line, > 1000 nM in experiment [1] and 101 to 500 nM at human JAK3.

Take `CCc1cc(CNS(=O)(=O)C(F)F)ncc1N(C)c1cc2c(cn1)ncn2C` [Compound 343, N-{4-Ethyl-5-[methyl-(1-methyl-1H-imidazo[4,5-c]pyridin-6-yl)-amino]-pyridin-2-ylmethyl}-C,C-difluoro-methane sulfonamide]: the results for the IC50 (in the experiment with CTLL-2 cell line; in experiment [1]; on human JAK3) were > 1000 nM, 501 to 1000 nM and 101 to 500 nM, respectively.

On to `CCc1ccccc1N(CC(F)F)c1cc2c(cn1)ncn2C` [Compound 463, N-(2,2-difluoroethyl)-N-(2-ethylphenyl)-1-methyl-1H-imidazo[4,5-c]pyridin-6-amine], for which the results for the IC50 (in experiment [1]; on human JAK3) were > 1000 nM and 101 to 500 nM, respectively.

For the origin of these results see patent US20130217664A1, “NOVEL COMPOUNDS USEFUL FOR THE TREATMENT OF DEGENERATIVE AND INFLAMMATORY DISEASES” (priority 2012, published 2013).
